{"source": "patent US20200069775A1", "about": "“BRAIN OSTEOCALCIN RECEPTOR AND COGNITIVE DISORDERS” (The Trustees of Columbia University in the City of New York, priority 2017, published 2020)", "tested_on": "Osteocalcin−/− mice", "experiment": "Intracerebro-ventricular (ICV) infusion in Osteocalcin−/− mice, behavioral tests", "assay_type": "in vivo, mouse", "protocol": "Osteocalcin−/−, Gprc6a−/−, Osteocalcin-mCherry, and Osteocalcin foxed mice have been previously described (Ducy et al., 1996, Nature 382:448-452; Oury et al., 2011, Cell 144:796-809). Mouse genotypes were determined by PCR. For all experiments, controls were littermate female WT, Cre-expressing, or flox/flox. All mice were maintained on a pure 129-Sv genetic background except for the inducible deletion Osteocalcin model (mix background: 25% C57/BL6 and 75% 129sv). For inducible gene deletion mice, tamoxifen was prepared in corn oil and injected intraperitoneally (IP) (1 mg/20g of body weight) over one week. For osteocalcin delivery to pregnant mice, IP injections (240 ng/day) were performed as soon as a plug was present daily until delivery (E0.5-E18.5). For osteocalcin or leptin infusion in adult Osteocalcin−/− or ob/ob mice, pumps (Alzet micro-osmotic pump, Model 1002) delivering osteocalcin (300 ng/hr), leptin (50 ng/hr), or vehicle were surgically installed subcutaneously in the backs of 3-month old mice. […] Leptin and osteocalcin content in sera and tissues were determined by ELISA.\nTail suspension testing was performed as previously described (Mayorga et al., 2001, J. Pharmacology Exper. Therapeutics 298:1101-1107; Stem et al., 1985, Psychopharmacology 85:367-370). […] The parameter recorded was the number of seconds spent immobile. Mice were scored by a highly trained observer, over a 5 min period, blind to the genotype of the mice.\nAnxiety and locomotor activity of mice were measured using the open field test (David et al., 2009, Neuron 62:479-493). […] Mice were monitored throughout each test session by video tracking and analyzed using Matlab software. […] The overall motor activity was quantified as the total distance travelled. The anxiety was quantified measuring the number of rearings and the time and distance spent in the center versus periphery of the open field chamber (in %).\nEach mouse was allowed to explore the apparatus for 5 min. Global activity was assessed by measuring the number of entries […] (David et al, 2009, Neuron 62:479-493). […]"}
{"substance": "osteocalcin: Recombinant osteocalcin bacterially produced, cleaved from the GST subunit; completely undercarboxylated at all three sites; full-length mouse osteocalcin (YLGASVPSPDPLEPTREQCELNPACDELSDQYGLKTAYKRIYGITI)", "values": [{"measurement": "anxiety and depression features", "setting": "Osteocalcin−/− mice, ICV 10 ng/hour, week-long treatment", "result": "corrected the anxiety and depression features"}, {"measurement": "leakage of centrally delivered hormone into the general circulation (osteocalcin in blood)", "setting": "Osteocalcin−/− mice, ICV infusion", "result": "no leakage"}, {"measurement": "defects in anxiety, depression, learning, and memory", "setting": "direct administration to the brains of adult Osteocalcin−/− mice", "result": "rescued defects in anxiety, depression, learning, and memory"}]}
